The record followed here is patent US20250163026A1, “Deuterium-Enriched Nirmatrelvir as SARS-CoV-2 Mpro Inhibitor for the Treatment of COVID-19” (priority 2023, published 2025).

The assay concerns human coronavirus M^Pro. The assay can be described thus: Biochemical determination for human coronavirus M^pro assays. As to conditions: at 30 μM, control compound, 1% DMSO. On the procedure: The respective human coronavirus M^Pro in assay buffer (20 mM Tris-HCl, pH 7.3, 100 mM NaCl, 1 mM EDTA, 5 mM TCEP) and 0.1% BSA is added to assay-ready plates containing test compound (compound the present invention, Formula I). The enzymatic reaction is then immediately initiated with the addition of 5 μL substrate in assay buffer. Initial rates are measured by following the fluorescence of the cleaved substrate using a Spectramax (Molecular Devices) fluorescence plate reader in the kinetic format.
Test compounds (compounds of the present invention, compounds of Formula I) are tested at final concentrations up to […] in 1% DMSO and compared to the broad-spectrum antiviral compound GC376 [Y. Kim, S. Lovell, et al, Broad-spectrum antivirals against 3C or 3C-like proteases of picornaviruses, noroviruses, and coronaviruses. J. Virol. […] The reaction is allowed to progress for 60 minutes at 23° C. after which the plate is read on a Molecular Devices Spectramax M2e reader at an Ex/Em of 340 nm/490 nm.
Percent inhibition values are calculated based on control wells containing DMSO only (0% inhibition) and wells containing a control compound (100% inhibition). […] Percent activity values are calculated based on control wells containing no compound (100% activity) and wells containing the broad-spectrum antiviral compound GC376 (0% activity). […]

Consider `CC(C)C[C@H](NC(=O)OCc1ccccc1)C(=O)N[C@@H](C[C@@H]1CCNC1=O)C(O)S(=O)(=O)[O-].[Na+]` (stereo partly shown) [GC376], for which the inhibition (commonly the relative decrease from the control value, in per cent) is 100%.
